Measured values as given in patent publication US7264314B2, “Adrenocorticotropic hormone analogs and related methods” (priority 2004, dated 2007).

Key:
[1] = system: ACTH-induced serum corticosterone in dexamethasone-suppressed mice; assay: in vivo Serum Corticosteroid Inhibition Assay; design: species or system FVB/N mice; details: peptide alone 120 minutes after dexamethasone, blood one hour later
Description: An in vivo Serum Corticosteroid Inhibition Assay measures the level of corticosteroid or corticosterone in the blood stream of a subject after administering a compound having a first corticosteroid-producing biological activity and a test compound. The compound having the corticosteroid-producing biological activity can be any compound known to induce a detectable increase in corticosteroid production. The test compound can be administered before the corticosteroid-producing compound, in combination with the corticosteroid-producing compound, and/or after the corticosteroid-producing compound. The corticosteroid-producing compound is preferably ACTH, but can also be an ACTH analog with a known corticosteroid-producing biological activity. By performing a series of in vivo Serum Corticosteroid Inhibition Assays using ACTH analog test compounds, ACTH analogs that inhibit the production of corticosteroid relative to the corticosteroid-producing compound used can be identified. Preferably, the ACTH analogs identified in this manner inhibit the production of corticosteroid in the presence of endogenous unmodified ACTH.
The in vivo Serum Corticosteroid Inhibition Assay can include sequential administration of the test compound and the corticosteroid-producing compound by the following steps: first, an agent to suppress endogenous ACTH production was administered to a mouse subject, such as an intraperitoneal injection of dexamethasone; second, after waiting a suitable period of time for suppression of endogenous ACTH production (e.g., 1.5–2.0 hours), a test compound was administered to the mouse by a suitable method, such as intraperitoneal injection; third, after waiting a suitable period of time (e.g., 1 hour) for action of the test compound, a compound with corticosteroid-producing activity can be administered to the mouse by a suitable method, such as intraperitoneal injection; and fourth, after waiting a suitable period of time for the biological activity of both administered compounds to occur (e.g., 1 hour), a blood sample was taken from the subject and the level of serum corticosterone was determined by a suitable method, such as a competitive radioimmunoassay using ^125I RIA kit (ICN, Costa Mesa, Calif.). Optionally, steps two and three can be reversed (administering the corticosteroid-producing compound first, followed by administration of the test compound). The in vivo Serum Corticosteroid Inhibition Assay can also include co-administration of the test compound and the corticosteroid-producing compound by the following steps: first, an agent to suppress endogenous ACTH production was administered to a mouse subject, such as an intraperitoneal injection of dexamethasone; second, after waiting a suitable period of time for suppression of endogenous ACTH production (e.g., 1.5–2.0 hours), the corticosteroid-producing compound and a test compound were co-administered to the mouse by a suitable method, such as intraperitoneal injection; and third, after waiting a suitable period of time for the biological activity of both administered compounds to occur (e.g., 1 hour), a blood sample was taken from the subject and the level of serum corticosterone was determined by a suitable method, such as a competitive radioimmunoassay using ^125I RIA kit (ICN, Costa Mesa, Calif.). Also, in some embodiments, the first step in any in vivo Serum Corticosteroid Inhibition Assay can be replaced by a measurement of the initial endogenous corticosteroid or corticosteroid level in the blood of the subject in the manner of step four, instead of administering the agent to suppress ACTH production. Example 2 describes murine in vivo Serum Corticosteroid Inhibition Assays in detail.
A series of separate in vivo Serum Corticosteroid Inhibition Assays were performed to identify ACTH analogs that inhibit ACTH adrenal hormone production in vivo. […]

[2] = target: T1, adrenal ACTH receptors such as MC-2R (explanted adrenal membrane) (Mus musculus, UniProt Q64326); assay: in vitro Serum-free Adrenal Competitive Binding Assay; design: species or system mice; details: cold peptide at 10 nM, 100 nM, 1000 nM
T1 construct: the adrenal halves were macerated or otherwise dissociated using Dounce Homogenizer to form a membrane fraction; from tissue; host or cells: membrane fraction of explanted mouse adrenal glands
Description: ACTH analog compounds that bind to adrenal membrane with a greater affinity than endogenous unmodified ACTH, and are able to displace unmodified ACTH can be identified using an in vitro Serum-free Adrenal Competitive Binding Assay (Example 3). […] A higher CPM level indicates the presence of greater amounts of the radiolabelled compound. […] Column 220 indicates the level of radio-labeled unmodified mACTH(1–24) detected after combining the explanted adrenal membrane with only the radio-labeled mACTH(1–24) for 2 hours.(no competitive binding). Columns 230, 240, and 250 show the results of competitive binding assays for binding of non-radio-labeled (“cold”) mACTH(1–24) to displace the radio-labeled mACTH(1–24) from the explanted adrenal membrane (measured in column 220) by competitive binding to receptors such as MC-2R on the adrenal membrane. […]
ACTH analogs with the ability to bind adrenal receptors with a greater affinity than compounds with known adrenal binding activity (preferably ACTH) can also be identified by performing an in vitro Adrenal Competitive Binding Assay, whereby measurement of the reduction in the amount of the radiolabelled adrenal-binding compound (e.g., ACTH) is measured at various concentrations of non-radio-labeled ACTH analog test compound in a medium containing explanted adrenal membrane. […]

[3] = in vivo; cited from earlier work

T1 sequence (Q64326 whole entry): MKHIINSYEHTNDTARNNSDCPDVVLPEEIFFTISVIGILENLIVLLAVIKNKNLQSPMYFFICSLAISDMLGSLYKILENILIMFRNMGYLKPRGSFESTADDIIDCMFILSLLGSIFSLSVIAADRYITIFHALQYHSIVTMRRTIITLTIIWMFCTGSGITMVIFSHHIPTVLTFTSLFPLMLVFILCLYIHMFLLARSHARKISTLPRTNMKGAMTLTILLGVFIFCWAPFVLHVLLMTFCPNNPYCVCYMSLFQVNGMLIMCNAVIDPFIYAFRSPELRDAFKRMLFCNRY
T1 sequence (Q9D159 whole entry partner): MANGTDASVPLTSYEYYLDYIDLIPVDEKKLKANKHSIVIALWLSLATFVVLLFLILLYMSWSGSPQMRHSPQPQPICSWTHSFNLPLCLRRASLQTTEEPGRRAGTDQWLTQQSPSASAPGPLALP

N-Ser^1-Tyr-Ser-Met-Glu^5-His-Phe-Arg-Trp-Gly^10-Lys-Pro-Val-Gly-Lys^15-Lys-Arg-Arg-Pro-Val^20-Lys-Val-Tyr-Pro-Ac [mACTH(1–24), reference compound]
serum corticosterone level at 180 minutes [1]: 500 ± 76 ng/mL
serum corticosterone level at 180 minutes ([1]; listed as ACTH): 500 ± 76 ng/mL
displacement of radio-labeled mACTH(1–24) from explanted adrenal membrane (CPM) [2]: displacement of the radio-labeled mACTH(1–24)
half life in blood [3]: less than 20 minutes
